Experimental data as given in ChEMBL document CHEMBL5214896, “Discovery of Selective Pituitary Adenylate Cyclase 1 Receptor (PAC1R) Antagonist Peptides Potent in a Maxadilan/PACAP38-Induced Increase in Blood Flow Pharmacodynamic Model” (J Med Chem, 2021).
Residues, ends and D or L forms follow the SMILES beside them.

What was measured:
[1] = molecular target: T1, Vasoactive intestinal polypeptide receptor 2 (Homo sapiens, UniProt P41587); assay: Antagonist activity at VPAC2 in human SH-SY5Y cells assessed as inhibition of PACAP38-induced cAMP accumulation pre-incubated for 30 mins followed by agonist addition and measured after 75 mins by Eu-cAMP tracer based LANCE ultra cAMP assay; assay type: functional, cell-based
T1 sequence (P41587 whole entry): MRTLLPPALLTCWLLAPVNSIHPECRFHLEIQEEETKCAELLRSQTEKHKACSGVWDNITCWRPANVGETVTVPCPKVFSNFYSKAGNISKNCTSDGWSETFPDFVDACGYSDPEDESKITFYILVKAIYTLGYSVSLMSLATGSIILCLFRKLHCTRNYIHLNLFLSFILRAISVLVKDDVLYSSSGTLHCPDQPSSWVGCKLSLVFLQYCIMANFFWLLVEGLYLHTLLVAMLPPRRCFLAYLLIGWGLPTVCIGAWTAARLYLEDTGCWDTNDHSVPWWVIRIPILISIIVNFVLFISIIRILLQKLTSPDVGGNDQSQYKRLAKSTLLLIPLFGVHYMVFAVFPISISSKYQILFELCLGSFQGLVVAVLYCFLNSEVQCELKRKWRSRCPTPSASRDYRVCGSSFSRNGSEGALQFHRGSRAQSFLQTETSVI

[2] = molecular target: T2, Pituitary adenylate cyclase-activating polypeptide type I receptor (Homo sapiens, UniProt P41586); assay: Antagonist activity at PAC1R in human SH-SY5Y cells assessed as inhibition of PACAP38-induced cAMP accumulation pre-incubated for 30 mins followed by agonist addition and measured after 75 mins by Eu-cAMP tracer based LANCE ultra cAMP assay; assay type: cell-based
[3] = molecular target: T3, Vasoactive intestinal polypeptide receptor 1 (Homo sapiens, UniProt P32241); assay: Antagonist activity at VPAC1 in human SH-SY5Y cells assessed as inhibition of PACAP38-induced cAMP accumulation pre-incubated for 30 mins followed by agonist addition and measured after 75 mins by Eu-cAMP tracer based LANCE ultra cAMP assay; assay type: functional, cell-based
T3 sequence (P32241 whole entry): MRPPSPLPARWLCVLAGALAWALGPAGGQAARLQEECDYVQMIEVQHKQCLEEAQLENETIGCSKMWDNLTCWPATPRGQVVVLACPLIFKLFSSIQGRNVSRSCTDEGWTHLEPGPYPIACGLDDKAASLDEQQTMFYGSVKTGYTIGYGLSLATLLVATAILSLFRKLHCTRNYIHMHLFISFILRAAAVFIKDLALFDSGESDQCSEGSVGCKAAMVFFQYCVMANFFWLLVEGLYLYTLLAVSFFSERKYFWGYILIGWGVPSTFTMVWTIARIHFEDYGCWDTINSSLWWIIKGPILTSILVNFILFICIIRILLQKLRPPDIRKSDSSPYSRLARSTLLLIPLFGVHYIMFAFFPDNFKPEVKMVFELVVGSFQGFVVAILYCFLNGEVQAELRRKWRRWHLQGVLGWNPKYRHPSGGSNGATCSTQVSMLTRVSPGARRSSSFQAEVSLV

[4] = molecular target: T2, Pituitary adenylate cyclase-activating polypeptide type I receptor; assay: Agonist activity at PAC1R in human SH-SY5Y cells assessed as cAMP accumulation incubated for 60 mins by Eu-cAMP tracer based LANCE ultra cAMP assay; assay type: cell-based
Target sequence in this assay (P41586 whole entry): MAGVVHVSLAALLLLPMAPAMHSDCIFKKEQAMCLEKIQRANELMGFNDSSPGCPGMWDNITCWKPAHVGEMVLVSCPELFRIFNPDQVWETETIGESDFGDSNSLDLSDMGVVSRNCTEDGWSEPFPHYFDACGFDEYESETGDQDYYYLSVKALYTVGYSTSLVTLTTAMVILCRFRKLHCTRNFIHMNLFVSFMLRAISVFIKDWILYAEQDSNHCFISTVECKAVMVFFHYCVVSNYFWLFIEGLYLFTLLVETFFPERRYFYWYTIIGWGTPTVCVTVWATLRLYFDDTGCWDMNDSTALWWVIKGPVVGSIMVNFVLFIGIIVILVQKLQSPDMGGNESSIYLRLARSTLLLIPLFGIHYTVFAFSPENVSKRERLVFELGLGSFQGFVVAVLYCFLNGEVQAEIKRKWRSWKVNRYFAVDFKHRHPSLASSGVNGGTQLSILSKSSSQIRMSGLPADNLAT

[5] = molecular target: T1, Vasoactive intestinal polypeptide receptor 2; assay: Agonist activity at VPAC2 in human SH-SY5Y cells assessed as cAMP accumulation incubated for 60 mins by Eu-cAMP tracer based LANCE ultra cAMP assay; assay type: functional, cell-based
[6] = molecular target: T3, Vasoactive intestinal polypeptide receptor 1; assay: Agonist activity at VPAC1 in human SH-SY5Y cells assessed as cAMP accumulation incubated for 60 mins by Eu-cAMP tracer based LANCE ultra cAMP assay; assay type: functional, cell-based
[7] = molecular target: T2, Pituitary adenylate cyclase-activating polypeptide type I receptor; assay: Antagonist activity at PAC1R in human SH-SY5Y cells assessed as inhibition of Maxadilan-induced cAMP accumulation pre-incubated for 30 mins followed by agonist addition and measured after 75 mins by Eu-cAMP tracer based LANCE ultra cAMP assay; assay type: cell-based; settings: filed as antagonist, time 105.0 min
Target sequence in this assay (P41586 21-468 limits assumed): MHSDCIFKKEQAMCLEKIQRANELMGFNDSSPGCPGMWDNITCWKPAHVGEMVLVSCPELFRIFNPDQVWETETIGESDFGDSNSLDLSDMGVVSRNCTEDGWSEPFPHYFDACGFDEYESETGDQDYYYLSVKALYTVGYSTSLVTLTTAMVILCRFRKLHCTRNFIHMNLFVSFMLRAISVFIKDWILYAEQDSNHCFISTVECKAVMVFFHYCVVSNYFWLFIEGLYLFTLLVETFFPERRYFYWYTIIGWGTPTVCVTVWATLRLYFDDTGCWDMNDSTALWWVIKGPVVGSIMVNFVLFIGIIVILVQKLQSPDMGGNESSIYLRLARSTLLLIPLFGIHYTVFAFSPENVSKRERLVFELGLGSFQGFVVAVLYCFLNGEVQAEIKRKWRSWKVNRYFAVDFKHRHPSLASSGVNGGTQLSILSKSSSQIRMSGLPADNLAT

[8] = Tmax in Sprague-Dawley rat at 10 mg/kg,sc measured upto 6 hrs by LC-MS analysis; assay type: ADME, organism-based; settings: in vivo
[9] = Bioavailability in Sprague-Dawley rat at 10 mg/kg,sc measured upto 6 hrs by LC-MS analysis; assay type: ADME, organism-based; settings: in vivo
[10] = AUC (0-infinity) in Sprague-Dawley rat at 2 mg/kg,iv measured upto 6 hrs by LC-MS analysis; assay type: ADME, organism-based; set-up: dose 2 mg/kg, time < 6 hrs, route iv; settings: in vivo
[11] = molecular target: T4, Pituitary adenylate cyclase-activating polypeptide type I receptor (Rattus norvegicus) (UniProt P32215); assay: Antagonist activity at PAC1R in rat RG2 cells assessed as inhibition of PACAP38-induced cAMP accumulation pre-incubated for 30 mins followed by agonist addition and measured after 75 mins by Eu-cAMP tracer based LANCE ultra cAMP assay; assay type: cell-based; settings: filed as antagonist, time 105.0 min
T4 sequence (whole entry): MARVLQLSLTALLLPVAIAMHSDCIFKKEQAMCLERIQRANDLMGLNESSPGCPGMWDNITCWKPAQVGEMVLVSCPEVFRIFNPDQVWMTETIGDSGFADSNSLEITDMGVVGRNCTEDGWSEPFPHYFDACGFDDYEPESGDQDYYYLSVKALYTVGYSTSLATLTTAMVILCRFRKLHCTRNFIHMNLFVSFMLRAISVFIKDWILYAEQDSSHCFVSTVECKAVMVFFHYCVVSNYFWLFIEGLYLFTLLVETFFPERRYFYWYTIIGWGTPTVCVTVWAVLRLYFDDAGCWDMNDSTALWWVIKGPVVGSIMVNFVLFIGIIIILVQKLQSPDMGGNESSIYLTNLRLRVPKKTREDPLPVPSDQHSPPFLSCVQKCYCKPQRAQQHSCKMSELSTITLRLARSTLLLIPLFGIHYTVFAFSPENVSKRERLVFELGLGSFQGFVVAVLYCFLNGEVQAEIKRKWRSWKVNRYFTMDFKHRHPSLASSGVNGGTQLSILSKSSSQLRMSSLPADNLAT

[12] = Volume of distribution at steady state in Sprague-Dawley rat at 2 mg/kg,iv measured upto 6 hrs by LC-MS analysis; assay type: ADME, organism-based; settings: in vivo, read-out: Vdss
[13] = Half life in Sprague-Dawley rat at 2 mg/kg,iv measured upto 6 hrs by LC-MS analysis; assay type: ADME, organism-based; settings: in vivo
[14] = Cmax in Sprague-Dawley rat at 10 mg/kg,sc measured upto 6 hrs by LC-MS analysis; assay type: ADME, organism-based; set-up: dose 10 mg/kg, time < 6 hrs, route sc; settings: in vivo
[15] = molecular target: T4, Pituitary adenylate cyclase-activating polypeptide type I receptor (Rattus norvegicus); assay: Antagonist activity at PAC1R in rat RG2 cells assessed as inhibition of Maxadilan-induced cAMP accumulation pre-incubated for 30 mins followed by agonist addition and measured after 75 mins by Eu-cAMP tracer based LANCE ultra cAMP assay; assay type: cell-based; settings: filed as antagonist, time 105.0 min
[16] = tested on: Rattus norvegicus; assay: In vivo Antagonist activity at Maxadilan-induced Sprague-Dawley rat assessed as reduction in Maxadilan-induced blood flow at 0.3 mg/kg,sc measured after 45 mins; assay type: functional; set-up: scale not given: the % may be the effect or the level left; settings: 0.75 h
[17] = Half life in Sprague-Dawley rat at 10 mg/kg,sc measured upto 6 hrs by LC-MS analysis; assay type: ADME, organism-based; settings: in vivo
[18] = Clearance in Sprague-Dawley rat at 2 mg/kg,iv measured upto 6 hrs by LC-MS analysis; assay type: ADME, organism-based; settings: in vivo
[19] = Cmax in Sprague-Dawley rat at 2 mg/kg,iv measured upto 6 hrs by LC-MS analysis; assay type: ADME, organism-based; set-up: time < 6 hrs, dose 2 mg/kg, route iv; settings: in vivo
[20] = AUC (0-infinity) in Sprague-Dawley rat at 10 mg/kg,sc measured upto 6 hrs by LC-MS analysis; assay type: ADME, organism-based; set-up: dose 10 mg/kg, time < 6 hrs, route sc; settings: in vivo

CSCC[C@H](NC(=O)[C@H](CCC(N)=O)NC(=O)[C@H](CCCCN)NC(=O)[C@H](CCCNC(=N)N)NC(=O)[C@H](Cc1ccc(O)cc1)NC(=O)[C@H](CCCNC(=N)N)NC(=O)[C@H](CO)NC(=O)[C@H](Cc1ccc(O)cc1)NC(=O)[C@H](CO)NC(=O)[C@H](CC(=O)O)NC(=O)[C@@H](NC(=O)[C@@H](N)Cc1ccccc1)[C@@H](C)O)C(=O)N[C@@H](C)C(=O)N[C@H](C(=O)N[C@@H](CCCCN)C(=O)N[C@@H](CCCCN)C(=O)N[C@@H](Cc1ccc(O)cc1)C(=O)N[C@@H](CC(C)C)C(=O)N[C@@H](C)C(=O)N[C@@H](C)C(=O)N[C@H](C(=O)N[C@@H](CC(C)C)C(=O)NCC(=O)N[C@@H](CCCCN)C(=O)N[C@@H](CCCNC(=N)N)C(=O)N[C@@H](Cc1ccc(O)cc1)C(=O)N[C@@H](CCCCN)C(=O)N[C@@H](CCC(N)=O)C(=O)N[C@@H](CCCNC(=N)N)C(=O)N[C@H](C(=O)N[C@@H](CCCCN)C(=O)N[C@@H](CC(N)=O)C(=O)N[C@@H](CCCCN)C(N)=O)C(C)C)C(C)C)C(C)C
IC50 [1]: 4.5 nM | IC50 [2]: 3.5 nM | IC50 [3]: 118 nM

CC[C@H](C)[C@H](NC(=O)CNC(=O)[C@H](CC(=O)O)NC(=O)[C@H](CO)NC(=O)[C@@H](N)Cc1cnc[nH]1)C(=O)N[C@@H](Cc1ccccc1)C(=O)N[C@H](C(=O)N[C@@H](CC(=O)O)C(=O)N[C@@H](CO)C(=O)N[C@@H](Cc1ccc(O)cc1)C(=O)N[C@@H](CO)C(=O)N[C@@H](CCCNC(=N)N)C(=O)N[C@@H](Cc1ccc(O)cc1)C(=O)N[C@@H](CCCNC(=N)N)C(=O)N[C@@H](CCCCN)C(=O)N[C@@H](CCC(N)=O)C(=O)N[C@@H](CCSC)C(=O)N[C@@H](C)C(=O)N[C@H](C(=O)N[C@@H](CCCCN)C(=O)N[C@@H](CCCCN)C(=O)N[C@@H](Cc1ccc(O)cc1)C(=O)N[C@@H](CC(C)C)C(=O)N[C@@H](C)C(=O)N[C@@H](C)C(=O)N[C@H](C(=O)N[C@@H](CC(C)C)C(=O)NCC(=O)N[C@@H](CCCCN)C(=O)N[C@@H](CCCNC(=N)N)C(=O)N[C@@H](CCCCN)C(=O)N[C@@H](Cc1ccc(O)cc1)C(=O)N[C@@H](CCCCN)C(=O)N[C@@H](CCC(N)=O)C(=O)N[C@@H](CCCNC(=N)N)C(=O)N[C@H](C(=O)N[C@@H](CCCCN)C(=O)N[C@@H](CC(N)=O)C(=O)N[C@@H](CCCCN)C(N)=O)C(C)C)C(C)C)C(C)C)[C@@H](C)O
EC50 [4]: 0.03 nM | EC50 [5]: 0.06 nM | EC50 [6]: 0.03 nM

CC[C@H](C)[C@H](NC(=O)[C@H](C)NC(=O)[C@H](CCCCN)NC(=O)[C@H](CCCNC(=N)N)NC(=O)[C@H](Cc1ccccc1)NC(=O)[C@H](CCC(N)=O)NC(=O)[C@@H]1CSSC[C@H](N)CC(=O)N[C@@H](CC(=O)O)C(=O)N[C@@H](C)C(=O)N[C@@H]([C@@H](C)O)C(=O)N1)C(=O)N[C@@H](CC(=O)O)C(=O)N[C@@H](CC(=O)O)C(=O)N[C@H]1CSSC[C@@H](C(=O)N[C@@H](CCSC)C(=O)N[C@@H](CCCCN)C(=O)N[C@@H](CCC(N)=O)C(=O)N[C@@H](CCCCN)C(=O)N[C@@H](CCCCN)C(=O)N[C@@H](CCCCN)C(=O)N[C@@H](CCC(=O)O)C(=O)N[C@@H](Cc2c[nH]c3ccccc23)C(=O)N[C@@H](CCCCN)C(=O)N[C@@H](C)C(=O)NCC(N)=O)NC(=O)[C@H](C)NC(=O)[C@H](CCCCN)NC(=O)[C@H](Cc2ccccc2)NC(=O)[C@H](C(C)C)NC(=O)[C@H](CO)NC(=O)[C@H](CO)NC(=O)[C@H](Cc2cnc[nH]2)NC(=O)[C@H](Cc2ccc(O)cc2)NC(=O)[C@H](C)NC(=O)[C@H](CCC(N)=O)NC(=O)[C@H](CCCNC(=N)N)NC(=O)[C@H](C)NC1=O (HELM PEPTIDE1{[N[C@@H](CS[*:3])CC(=O)[*:2]].D.A.T.C.Q.F.R.K.A.I.D.D.C.A.R.Q.A.Y.H.S.S.V.F.K.A.C.M.K.Q.K.K.K.E.W.K.A.G.[am]}$PEPTIDE1,PEPTIDE1,1:R3-5:R3|PEPTIDE1,PEPTIDE1,14:R3-27:R3$$$V2.0)
IC90 [7]: 0.12 nM | Tmax [8]: 15 min | bioavailability [9]: 28% | IC90 ([2]; filed as antagonist, time 105.0 min): 0.42 nM | AUC(0-inf) [10]: 1.16 µM·h | IC90 [11]: 0.17 nM | Vd [12]: 0.217 L/kg | half-life [13]: 58.1 min | Cmax [14]: 1110 nM | IC90 [15]: 0.14 nM | Activity [16]: 110% | half-life [17]: 41.3 min | clearance [18]: 6.55 mL/min/kg | Cmax [19]: 4170 nM | AUC(0-inf) [20]: 1.65 µM·h
